Article PMC3912015, “Synthetic Multivalent Antifungal Peptides Effective against Fungi” (PLoS ONE, 2014)
≈ marks a conversion by molar mass, not a printed value. Bridge positions count the residues as written; N and C are the ends. Peptide text beside a SMILES is read from it. I, II: the chains in the order shown.

Columns and labels:
[1] = test system: human conjunctival epithelial cells (IOBA-NHC); assay: in vitro; assay type: cell-based; details: 24 h
Experimental: (§1) Immortalized normal human conjunctival epithelial cells (IOBANHC) were a gift from Yolanda Diebold at the University of Valladolid, Spain [31]. IOBA-NHC cells were cultured under standard conditions (humidified atmosphere of 5% CO2 at 37°C) in DMEM/F12 supplemented with 1 µg/ml bovine pancreas insulin, 2 ng/ml mouse epidermal growth factor, 0.1 µg/ml cholera toxin, 5 µg/ml hydrocortisone, 10% fetal bovine serum (FBS), 50 UI/ml penicillin, and 50 UI/ml streptomycin. Cells from passages 50–80 were used in all experiments. Every day, normal culture development was observed by phase-contrast microscopy. Cells were removed by gentle trypsin incubation at confluence and counted. They were seeded into 96 well culture plates (Corning, Schiphol-Rijk, The Netherlands) for microtitration analysis of flow cytotoxicity assay (∼10,000 cells/well). Cultures were kept at 37°C for 24 h. Subconfluent cells (culture surface covering nearly 70%) were then exposed to various peptide concentrations (0.22–225 µM). Cytotoxicity was measured periodically using MultiTox-Fluor Multiplex assay kit (Promega, WI, USA) by measuring the AFC fluorescence (λex = 485 and λem = 520 nm). We report the cell viability after 24 h incubation of the cells with the peptides since there was no detectable toxicity even after 8 h of incubation.

[2] = in vitro; assay type: cell-based, human; details: human
Experimental: as §1

[3] = test system: C. albicans ATCC2091; assay: microbe, parasite or virus in culture; assay type: cell-based; details: ATCC2091, 48 h; read-out: MIC in µM against Ca 2091
Experimental: (§2) The yeast strains were cultivated and suspended in Sabouraud’s Dextrose (SD) broth diluted to one sixth at a starting OD600 = ∼0.08 in a flat-bottomed microtitre plate. A serial dilution of peptide in the same broth was mixed with the inoculum to give a final peptide concentration of 0.4–22 µM. The antifungal activity was assessed by monitoring the OD600 in cycles of 30 minutes and an orbital shaking at 100 rpm using an Infinite M200 microplate reader (Tecan Group Ltd., Switzerland) for 24/48 h at 37°C. Cultures without peptides were used as positive controls and broth alone or with 22 µM peptide served as negative controls. The minimum concentration required for complete inhibition was assessed by both visible observations as well as by measuring the OD600 and taken as the MIC. Each experiment was repeated in triplicates. For studying the effects of metal ions, SD broth was adjusted with appropriate concentrations of salts to yield a final concentration of 100 and 135 mM for NaCl and KCl and 0.5–2 mM for CaCl2 and MgCl2. MIC determinations were carried out as described above. C. albicans ATCC10231 cells and salts in broth were taken as a positive control. Salts alone (NaCl, KCl, and CaCl2 and MgCl2) in broth or with 22 µM peptide served as a negative control. The effect of 5% human serum on the activities of B4010 against two C. albicans clinical isolates was determined. The human male serum was centrifuged at 13,000 rpm for 10 mins in order to remove the lipids and the supernatant was collected. The MIC values against clinical isolates of C. albicans 2672R and C. albicans 1976R were determined both in standard medium (SD broth) as well as in standard medium containing 5% serum supernatant as before.

[4] = test system: C. albicans DF2672R; assay: microbe, parasite or virus in culture; assay type: cell-based; details: DF2672R, 48 h; read-out: MIC in µM against Ca 2672R
Experimental: as §2

[5] = test system: C. albicans ATCC24433; assay: microbe, parasite or virus in culture; assay type: cell-based; details: ATCC24433, 48 h; read-out: MIC in µM against Ca 24433
Experimental: as §2

[6] = test system: C. albicans DF1976R; assay: microbe, parasite or virus in culture; assay type: cell-based; details: DF1976R, 48 h; read-out: MIC in µM against Ca DF1976R
Experimental: as §2

[7] = test system: C. albicans ATCC10231; assay: microbe, parasite or virus in culture; assay type: cell-based; details: ATCC10231, 48 h; read-out: MIC in µM against Ca 10231
Experimental: as §2

- EC50 [1]: > 237 µM
- MIC [3]: 1.5 µM (≈ 6.33 µg/mL)
- MIC [4]: 1.5 µM (≈ 6.33 µg/mL)
- MIC [5]: 5.9 µM (≈ 24.9 µg/mL)
- MIC [6]: 0.75 µM (≈ 3.17 µg/mL)
- MIC [7]: 5.9 µM (≈ 24.9 µg/mL)
SMILES: CC(C)[C@H](NC(=O)[C@H](CCCCN)NC(=O)[C@H](CCCNC(=N)N)NC(=O)CNC(=O)[C@H](C)N)C(=O)N[C@H](C(=O)N[C@@H](CCCNC(=N)N)C(=O)N[C@@H](CCCNC(=N)N)C(=O)NCCCC[C@H](NC(=O)[C@H](CCCNC(=N)N)NC(=O)[C@H](CCCNC(=N)N)NC(=O)[C@@H](NC(=O)[C@@H](NC(=O)[C@H](CCCCN)NC(=O)[C@H](CCCNC(=N)N)NC(=O)CNC(=O)[C@H](C)N)C(C)C)C(C)C)C(=O)NCCCC[C@H](NC(=O)[C@H](CCCCNC(=O)[C@H](CCCNC(=N)N)NC(=O)[C@H](CCCNC(=N)N)NC(=O)[C@@H](NC(=O)[C@@H](NC(=O)[C@H](CCCCN)NC(=O)[C@H](CCCNC(=N)N)NC(=O)CNC(=O)[C@H](C)N)C(C)C)C(C)C)NC(=O)[C@H](CCCNC(=N)N)NC(=O)[C@H](CCCNC(=N)N)NC(=O)[C@@H](NC(=O)[C@@H](NC(=O)[C@H](CCCCN)NC(=O)[C@H](CCCNC(=N)N)NC(=O)CNC(=O)[C@H](C)N)C(C)C)C(C)C)C(=O)N[C@@H](CCCCN)C(=O)O)C(C)C [B4010_R1A] (I: H-AGRKVVRRKKK-OH / II: H-AGRKVVRRK / III: H-AGRKVVRR / IV: H-AGRKVVRR; amide I:9-IV:C, I:10-II:C, II:9-III:C; N-terminus and C-terminus assumed)
- viability at 24 h, 237 µM [2]: 67.6%
